Data on nine substances can be found in patent US6432681B1, “Compositions for treating Escherichia coli urinary tract infections” (The Regents of the University of Washington, priority 1992, dated 2002).

The test system of one assay is Escherichia coli R45. Nature of the assay: Bacterial overlay assay: binding of 35S-labelled E. coli R45 to glycolipids separated on HPTLC. To be noted: for binding of E. coli R45 to glycolipid standards: GSL standards separated on HPTLC plates; for reaction of E. coli R45 with SGG and DSGG standards (FIG. 1A): standards run beside vaginal epithelial cell gangliosides, autoradiogram. The method, then:
E. coli R45 was isolated from a person with cystitis which had the pap family genotype, expressing both the P and F adhesins (Stapleton, A. et al., J. Infect Dis., 163:773-779, 1989). Organisms were kept frozen in 50% glycerol/50% Luria broth (Maniatis, T. et al., Molecular Cloning: A Laboratory Manual, 1982) at −70° C. until the night before use, when they were streaked onto Luria agar plates (Maniatis, T. et al., Molecular Cloning: A Laboratory Manual, 1982) to promote fimbrial expression and grown overnight at 37° C. On the day of use, bacteria were scraped from the plate, resuspended in M9 medium (Maniatis, T. et al., Molecular Cloning: A Laboratory Manual, 1982) without amino acids, and shaken at 37° C. for 40 minutes to deplete cellular methionine stores. ^35S-methionine (Trans^35S-label, 1137 Ci/mmol, ICN Biochemicals, Irvine, California) was then added at 200 μCi per 10^10 organisms. The cells were shaken for one hour, washed three times in PBS and resuspended in PBS (pH 7.3), and counted in a scintillation counter to give a final activity of approximately 0.01 to 0.02 cpm/organism.
(§1) Glycolipids (10 to 40 μg/lane) were chromatographed on glass HPTLC plates (Whatman) in CMW (50:40:10 by volume) with 0.05% CaCl2 with one plate run in parallel for orcinol staining. Plates were dried, dipped for 1 minute in diethyl ether containing 0.5% polyisobutylmethacrylate, dried, and preincubated in 1% bovine serum albumin (BSA)/PBS for one hour, then washed three times in PBS. Radiolabelled bacteria were overlaid (10^8 cpm total per plate) and the plates were gently rocked for one hour, washed four times in PBS and subjected to autoradiography.
The binding of metabolically radiolabelled E. coli strain R45 to glycolipid standards separated on HPTLC plates was determined using a broad panel of GSLs with varying carbohydrate moieties, as shown in Table 2.
Subsequent experiments were conducted to identify the unique E. coli-binding GSL band detected in nonsecretors' vaginal epithelial cells. Total upper neutral GSLs and total upper gangliosides were extracted from vaginal epithelial cells pooled in equal quantities from 5 nonsecretors and 9 secretors and reacted with radiolabelled E. coli R45.
Lane 1 contains ceramide trihexoasyl and globoside standards; Lane 2 contains total lower phase GSLs from the nonsecretors; Lane 3 contains total lower phase GSLs from the secretors; Lane 4 contains the Forssman antigen standard; Lanes 5 and 6 contain total upper neutral GSLs from nonsecretors and secretors, respectively; Lanes 7 and 10 contain gal-globoside, sialosyl gal-globoside, and disialosyl gal-globoside standards; Lanes 8 and 9 contain total upper phase gangliosides from nonsecretors and secretors, respectively.

Assay [1] relates to MAb ID4 (directed against SGG). Put plainly: Radioimmunoassay of GSLs immobilized in microtiter wells with MAb ID4. The format is binding. The settings on record: standards from human pancreas, bovine brain (GD1a), human placenta (disialosyl I). The method, then:
Radioimmunoassays of GSLs immobilized in microtiter wells were performed according to the method of Karlsson (Karlsson, K.-A. et al., Methods Enzymol., 138:220-232, 1987).
The SGG and DSGG bands from the nonsecretors' vaginal epithelial cell extracts were then reacted with ID4 in a radioimmunoassay, shown in FIG. 3.
In FIG. 3, the dotted line indicates sialosyl gal-globoside (SGG) standard from human pancreas; the solid line indicates the band co-migrating with SGG eluted from TLC of nonsecretors' extracted vaginal epithelial cells; the dashed line indicates eluted band co-migrating with DSGG from nonsecretors and the following GSL standards: gal-globoside and DSGG from human pancreas, GD1a from bovine brain, and disialosyl I from human placenta.

In assay [2] the test system is E. coli isolates R45, IA2, JJ122, pDC1 and pJFK102. Nature of the assay: Bacterial overlay assay: binding of five 35S-labelled E. coli UTI isolates to serially diluted globo-series GSLs, radioactivity counted. Also on record: species or system Escherichia coli. To be noted: all five isolates; GSL serially diluted from 300 ng to 18.25 ng on HPTLC. The method, then: as §1
Five isolates of E. coli were isolated from patients with UTI, R45 (wild-type cystitis isolate expressing class II pap adhesin), IA2 (wild-type isolate expressing class II pap adhesin), JJ122 (expresses class I pap adhesin), pDC1 (a subclone of IA2, expresses class II pap adhesin) and pJFK102 (expresses class III pap adhesin). The five strains were labelled metabolically with ^35S and exposed to various glycosphingolipids (GSL) separated by HPTLC in the bacterial overlay assay described hereinabove. The amount of radioactivity in the area of each GSL was counted. Controls included HB101.
The GSL's tested were CTH (globotriaosylceramide, isolated from human red blood cells), globoside (also isolated from human erythrocytes), SGG (isolated from vaginal epithelial cells or human kidney), CMH (ceramide monohexoside isolated from adenocarcinoma of colon, negative control) and DSGG (isolated from the same sources as SGG). The GSL's were serially diluted beginning with 300 ng and ending at 18.25 ng.

For “(Fucα1-2)Galβ1-3 GalNAcβ1-3 Galα1-4 Galβ1-4 Glcβ1-1cer [Globo H]”, the “binding of E. coli R45 to glycolipid standards” value (“binding of E. coli R45” below) in the assay on Escherichia coli R45 was “bound”.

Turning to GD1a, the “reaction of antibody ID4 with GSL standards (FIG. 3)” value (“reaction of antibody ID4” below) in assay [1] is “did not bind”.

With “GalNAcα1-3 (Fucα1-2)Galβ1-3 GalNacβ1-3 Galα1-4 Galβ1-4 Glcβ1-1cer [Globo A]”, the “binding of E. coli R45” value in the assay with Escherichia coli R45 is recorded as “bound”.

Take “GalNAcα1-3 Galβ1-3 GalNAcβ1-3 Galα1-4 Galβ1-4 Glcβ1-1cer [Forssman]”: the “binding of E. coli R45” value in the assay on Escherichia coli R45 is recorded as “bound”.

For the substance “GalNAcβ1-3 Galα1-4 Galβ1-4 Glcβ1-1cer [Globoside]”, the “level of binding of the E. coli isolates to the GSL” value (shortened to “level”) in assay [2] is on record as “lower than to DSGG”. In addition, the “binding of E. coli R45” value with Escherichia coli R45 is given as “bound”.

For the substance Galα1-4 Galβ1-4 Glcβ1-1cer [CTH], the “level” value in assay [2] is on record as “lower than to DSGG”.

Take “Galβ1-3 GalNAcβ1-3 Galα1-4 Galβ1-4 Glcβ1-1cer [Gal-globoside]”: the “reaction of antibody ID4” value in assay [1] is listed as “did not bind”. Moreover, the “binding of E. coli R45” value in the assay with Escherichia coli R45 is reported as “bound”.

With “NeuAcα2-3 (NeuAcα2-6)Galβ1-3 GalNAcβ1-3 Galα1-4 Galβ1-4 Glcβ1-1cer [DSGG]”, the “reaction of antibody ID4” value in assay [1] is on record as “did not bind”. Besides, the “reaction of E. coli R45 with SGG and DSGG standards (FIG. 1A)” value with Escherichia coli R45 is reported as “reacted”.

For “NeuAcα2-3 Galβ1-3 GalNAcβ1-3 Galα1-4 Galβ1-4 Glcβ1-1ce [SGG]”, the “reaction of antibody ID4” value in assay [1] was “reacted”. For the same substance, the “level” value in assay [2] is recorded as “highest binding”. The “reaction of E. coli R45 with SGG and DSGG standards (FIG. 1A)” value in the assay with Escherichia coli R45 is “reacted”.
